# Data: US8911710B2, “Intravascular contrast agents” (Agency for Science, Technology and Research, priority 2008, dated 2014)
# Experiment: Relaxivity measurement (T1 by inversion recovery spin echo in aqueous phantoms, Varian 9.4T MRI system)
# Format: physicochemical
# Settings: 25° C., in H2O
# Protocol: Relaxivity measurement and MRI were conducted on a Varian 9.4T MRI system (Palo Alto, Calif., USA). T1 was measured by inversion recovery spin echo in aqueous phantoms with concentrations 0.4, 0.2 0.1, 0.05, 0.025, 0.0125 and 0.00625 mM Gd. In vivo study was conducted on Wistar rats (male, weight 320-340 g) under 2% isoflurane anesthesia. CAs were injected (dosage: 0.04 mmol Gd/kg body weight) through tail vein. T1-weighted images were acquired every 6.4 s for 48 min with T1-weighted gradient echo sequence (TR/TE=50/3 ms, flip-angle=20 degree, resolution=[…], thickness=2 mm).
row,SMILES,relaxivity r1 [mM⁻¹ s⁻¹]
1,O=C([O-])CN1CCN(CC(=O)[O-])CCN(CC(=O)O)CCN(CC(=O)[O-])CC1.[Gd+3] [Gd-DOTA],3.9
2,O=C([O-])CN(CCN(CC(=O)[O-])CC(=O)O)CCN(CC(=O)[O-])CC(=O)O.[Gd+3] [Gd-DTPA],4.1
